Experimental data published in patent publication US20240051952A1, “HMOX1 INDUCERS” (Mitobridge Inc., priority 2019, published 2024).
Values after ≈ are worked out from the molar mass of the structure shown. Where a name gives a salt, the structure may show the parent alone.

Experiments:
[1] = tested on: Heme Oxygenase 1 (HO1); assay: PD study, HMOX1 protein levels in mouse plasma and liver (ELISA); format: in vivo; settings: HMOX1 protein fold induction vs time-matched vehicle, 50 mpk oral; for Liver Protein (3 h) / Liver Protein (6 h): mouse liver; for Plasma Protein (3 h) / Plasma Protein (6 h): mouse plasma
Description: 9-10 week old male C57BL/6 mice were dosed orally with 50 mg/kg of vehicle or compound formulated in 5% w/v tween 80 and 0.5% methyl cellulose. At indicated time points (3 and 6 hours or or 4 and 8 hours post-dosing as shown in the results below), whole blood was collected, animal was sacrificed and liver was collected. Blood samples were transferred to vials containing 4 μL of 10% w/v EDTA, centrifuged at 6000 rpm for 8 in below 10° C. to obtain plasma. Samples were frozen and later processed for HMOX1 protein levels as indicated below:
HMOX 1 Protein Levels: Mouse Liver
Preparation of Homogenization/Lysis Buffer
The homogenization buffer was prepared according Table A.
Immediately prior to use, add DTT (ThermoScientific #R0861) to a final concentration of 5 mM and 100×Halt Protease & Phosphatase Inhibitor Cocktail (ThermoScientific #78440) to a final concentration of 1×.
Preparation of Mouse Liver Samples
Liver samples were crushed by mortar and pestle under freezing conditions. Pulverized tissue was transferred into pre-chilled bead ruptor OMNI tubes (OMNI International, Cat #19-628). 1 mL of homogenization buffer (+DTT and HALT) was added to pulverized tissue and tubes were placed on ice. Samples were loaded and run through bead ruptor at speed 5.64 m/s, for two 20 sec cycles with 10 sec dwell between cycles and samples were immediately returned to ice. All material was transferred to a new chilled 2 mL Eppendorf tube. Samples were centrifuged for 5 minutes at 2,000 rpm at 4° C. Supernatant was transferred to a fresh chilled 1.7 mL Eppendorf tube. Samples were centrifuged for 5 minutes at 2,000 rpm at 4° C. The supernatant, consisting of cytosol and microsomes, was transferred to a fresh chilled 1.7 mL Eppendorf tube. Samples were stored at −80° C. Microsome samples were quantitated using Pierce 660 Assay (ThermoFisher Cat #22660) with pre-diluted BSA standards (ThermoFisher Cat #23208) ranging from 125-2000 μg/mL. Each sample was diluted to 10ng/ul for an ELISA input of 0.5ug in 50ul.
Preparation of Assay Reagents
All assay reagents were provided in the Heme Oxygenase 1 (HO1) Mouse SimpleStep ELISA Kit (Abcam #ab204524). Prior to use, all reagents were equilibrated to room temperature. 1×Wash Buffer PT was prepared by diluting 10×Wash Buffer PT 1:10 with deionized water. Antibody cocktail was prepared by diluting the 10×Capture Antibody and 10×Detector Antibody to 1×in Antibody Diluent 5BI. Mouse heme oxygenase 1 protein standard was reconstituted using 500ul homogenization buffer (Table A), mixed and held at room temperature for 10 minutes prior to dilution. An eight point standard curve was generated by diluting the Stock Standard 1:2 for standard curve ranging from 10,000-156.3 pg/mL.
Heme Oxygenase 1 (HO1) Mouse SimpleStep ELISA
50ul of all samples and standards were added to appropriate wells in duplicate. 50ul of 1×Antibody Cocktail was added to each well. The plate was sealed with provided seal and incubated at room temperature on a plate shaker at 400 rpm. After one hour incubation, the Antibody Cocktail was aspirated and the wells were washed three times with 350ul 1×Wash Buffer PT, aspirating completely between each step. After the last wash was aspirated dry, 100ul TMB Substrate was added to each well and the plate was incubated in the dark at room temperature for 10 minutes on a plate shaker at 400 rpm. After the 10 minute incubation, 100ul of Stop Solution was added to each well. Plate was shaken at 400 rpm for 1 minute to mix. Softmax Pro 7.0.3 was used to read OD at 450 nm as well as for analysis.
Heme Oxygenase 1 Protein Levels in Mouse Plasma
All assay reagents were provided in the Heme Oxygenase 1 (HO1) Mouse SimpleStep ELISA Kit (Abcam #ab204524). 1×Wash Buffer PT was prepared by diluting 10×Wash Buffer PT 1:10 with deionized water. Antibody cocktail was prepared by diluting the 10×Capture Antibody and 10×Detector Antibody to 1×in Antibody Diluent 5BI. […]

[2] = tested on: FTH1; assay: FTH1 mRNA expression in HepG2 cells (Nanostring); format: cell-based, human; settings: 24 hours treatment
Description: RNA Isolation and Quantification of Gene Expression
HepG2 cells were seeded at 250 k/well in 12-well tissue culture plates coated with collagen (collagen I, rat tail (thin plate coating); ENZO Life Sciences) for approximately 24 hours. The seeded cells were then treated with dose titration of the compound of Example 17 or dimethyl fumarate (DMF) (a Nrf2 activator; Fisher Scientific) via media change, with biological triplicates performed for each treatment. After approximately 24 hours of treatment, cells were visually inspected to confirm that no toxicity occurred with compound treatment. The treated cells were washed with PBS, aspirated, parafilmed and frozen at −80° C. prior to RNA isolation. RNA was isolated using Machery-Nagel isolation kit (NucleoSpin® RNA: catalog 740955.250) and then quantitated using ThermoFisher Nanodrop.
RNA was diluted for Nanostring gene expression analysis. The diluted RNA at an input of 200ng RNA was run on a Nanostring instrument, which was supported with nCounter® SPRINT Profiler System and nSolver4.0 Software, nCounter® SPRINT Cartridge, nCounter® SPRINT Reagent Pack, and nCounter© SPRINT Hybridization Buffer. Analysis was done manually using raw data obtained from nSolver4.0 Software. CLTC, POLR2A, RPL27 and TBP were used as reference genes for normalization. Data was graphed as fold change compared to DMSO treatment. […]

[3] = tested on: Human Heme Oxygenase-1 (HMOX-1); assay: ELISA assay to measure human heme oxygenase-1 (HMOX-1) in HepG2 lysate; format: cell-based; settings: for Maximum Fold induction: fold change of human HMOX1 protein levels relative to DMSO control, HepG2; for EC50: human HMOX1 protein in HepG2 lysate, ELISA, * = average of 2 or more EC50 determinations, NA = Not Active
In short: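 HO-1 protein quantified by chemiluminescent sandwich ELISA against a 2-fold standard series starting at 20 ng/ml. Samples were 1:20-diluted HepG2 lysates made in Triton X-100/EDTA buffer with protease inhibitors. Capture antibody coated at 8 μg/ml, detection antibody used at 200 ng/ml, room-temperature (20 °C) steps.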

[4] = Kinetic solubility; format: physicochemical; settings: Dulbecco's phosphate buffered saline (DPBS), aqueous buffer, kinetic from dmso stock, DPBS pH 7.4, 25° C., 200 μM test compound
Description: 10 μL of 10 mM DMSO stock solution were aliquotted to 490 μL of DMSO solution and separately 490 μL of Dulbecco's phosphate buffer saline, DPBS, pH 7.4 solution in 1.2 mL 96-well plates in duplicate. Final concentration was 200 μM of the test compound. Samples were incubated at 25° C. with shaking at 200 rpm for 16 h. Samples were centrifuged at 3500 rpm for 20 min at 25° C., and supernatant was submitted for HPLC analysis.
Kinetic solubility was measured using the following equation: […]

[5] = PD study, liver compound concentration in mice; format: in vivo; settings: mouse liver, 50 mpk oral
[6] = PK study, plasma and brain levels in C57BL/6 mice; format: in vivo, mouse; settings: male C57BL/6 mice, 50 mg/kg oral
Description: 9-10 week old male C57BL/6 mice were dosed orally with 50 mg/kg of the test compound formulated in 5% w/v tween 80 and 0.5% methyl cellulose. At 0.5 and 4 h post dosing, whole blood was collected, animals were sacrificed and brain tissues were collected. The blood samples were immediately placed on ice, and centrifuged within 60 min at 4° C. for 3 min at 14000 rpm to obtain plasma. Plasma was transferred by pipette to pre-labeled Eppendorf tubes, stored at −80° C. until analyzed.
Brain tissue samples were collected and rinsed with fresh ice cold 0.9% NaCl solution, dried quickly and thereafter frozen on dry ice/liquid nitrogen and stored at −70±10° C. until analyzed. Homogenization was done using phosphate buffer saline and used for analysis. Bioanalysis was performed using LC-MS/MS (API 4000).

Structure (SMILES)	Liver Protein (3 h) [1] [x]	Liver Protein (6 h) [1] [x]	Plasma Protein (3 h) [1] [x]	Plasma Protein (6 h) [1] [x]	Maximum Fold induction [3]	EC50 [3] [µM]	solubility at 16 h [4] [µM]	further results
Cn1c(Nc2nc3ccc(OC(F)(F)F)cc3s2)nc2cc(C(=O)NCCOCCO)ccc21 [Comparator 1, 1-methyl-2-(6-trifluoromethoxy-benzothiazol-2-ylamino)-1H-benzoimidazole-5-carboxylic acid [2-(2-hydroxyethoxy)-ethyl]-amide, reference compound]	1.6	3.2	1.1	1.3	–	–	–	–
COC(=O)/C=C/C(=O)OC [DMF, dimethyl fumarate, reference compound]	–	–	–	–	–	–	–	FTH1 expression fold increase [2]: comparable fold increases
Cn1c(Nc2nc3c(s2)CC(C)(C)CC3)nc2cc(C(=O)NCCOCCO)ccc21 [Example 6, 2-((6,6-dimethyl-4,5,6,7-tetrahydrobenzo[d]thiazol-2-yl)amino)-N-(2-(2-hydroxyethoxy)ethyl)-1-methyl-1H-benzo[d]imidazole-5-carboxamide]	–	–	–	–	41	3	8.1 (≈ 3.59 µg/mL)	–
CC1CCc2nc(Nc3nc4cc(C(=O)NCCOCCO)ccc4n3C)sc2C1 (centres unmarked) [Example 7, N-(2-(2-hydroxyethoxy)ethyl)-1-methyl-2-((6-methyl-4,5,6,7-tetrahydrobenzo[d]thiazol-2-yl)amino)-1H-benzo[d]imidazole-5-carboxamide]	–	–	–	–	27	2.7	7.2 (≈ 3.09 µg/mL)	–
COCCNC(=O)c1ccc2c(c1)nc(Nc1nc3c(s1)CCC3)n2C [Example 8, 2-((5,6-dihydro-4H-cyclopenta[d]thiazol-2-yl)amino)-N-(2-methoxyethyl)-1-methyl-1H-benzo[d]imidazole-5-carboxamide]	–	–	–	–	5-8	2.5	6.9 (≈ 2.56 µg/mL)	–
Cl.Cn1c(Nc2nc3c(s2)CNCC3)nc2cc(C(=O)NCCOCCO)ccc21 [Example 9, N-(2-(2-hydroxyethoxy)ethyl)-1-methyl-2-((4,5,6,7-tetrahydrothiazolo[5,4-c]pyridin-2-yl)amino)-1H-benzo[d]imidazole-5-carboxamide hydrochloride]	–	–	–	–	2	–	2.8	–
Cn1c(Nc2nc3cc(OC(F)(F)F)ccc3[nH]2)nc2cc(C(=O)O)ccc21 [Example 13, 1-methyl-2-((5-(trifluoromethoxy)-1H-benzo[d]imidazol-2-yl)amino)-1H-benzo[d]imidazole-5-carboxylic acid]	1.8	1.2	1.1	0.8	6-27	–	–	–
Cn1c(Nc2nc3ccccc3o2)nc2cc(C(=O)NCCNC3=NCCN3)ccc21 [Example 22, 2-(benzo[d]oxazol-2-ylamino)-N-(2-((4,5-dihydro-1H-imidazol-2-yl)amino)ethyl)-1-methyl-1H-benzo[d]imidazole-5-carboxamide]	–	–	–	–	18	–	3.5 (≈ 1.46 µg/mL)	–
Cn1c(Nc2nc3ccc(OC(F)(F)F)cc3o2)nc2cc(C(=O)O)ccc21 [Example 44, 1-methyl-2-((6-(trifluoromethoxy)benzo[d]oxazol-2-yl)amino)-1H-benzo[d]imidazole-5-carboxylic acid]	1.6	2.1	1.0	1.1	9-14	–	–	Liver Conc uM (3 h) ([5]; 3 h): 217 µM; Liver Conc uM (6 h) ([5]; 6 h): 162 µM
COCCNC(=O)c1ccc2c(c1)nc(Nc1nc3ccc(OCCOC)cc3o1)n2C [Example 56, 2-((6-(2-methoxyethoxy)benzo[d]oxazol-2-yl)amino)-N-(2-methoxyethyl)-1-methyl-1H-benzo[d]imidazole-5-carboxamide]	–	–	–	–	21-38	–	–	brain penetration [6]: good brain penetration
